How the values were obtained:
[1] = system: 3D G-OF organoids; assay: Tissue stiffness of 3D G-OF organoids (microindentation compression test); assay type: cell-based, human; details: for tissue stiffness of 3D G-OF organoids: added day 1, kept to day 6, 10 μM GM6001, 30 nM T3, 5 mIU/ml TSH, 0.5 mM BAPN, 1, 5 or 10 μM HIF2A antagonist
Excerpt: (§1) Orbital adipose tissues were obtained from surgical waste samples of de-identified euthyroid patients with GO undergoing orbital decompression and from non-GO subjects without inflammatory orbital disease, who underwent cosmetic eyelid surgery. OFs were isolated and grown as previously described (49). Briefly, tissues were minced into small pieces, placed on 150 mm culture dishes, and submerged in growth medium (DMEM supplemented with 10% v/v FBS, 1% v/v L-glutamine, 1% v/v antibiotic-antimycotic) at a sufficient depth to cover the tissue chunks. Explants were cultured in a humidified incubator • (at 37° C. with 5% CO2), with growth medium changes every 2-3 days. OFs from five GO patients five non-GO patients were isolated and expanded for subsequent experiments. All experiments were performed using OFs of 3-6 passages after the initial cell isolation.
(§2) A hanging droplet spheroid culture system was used to generate 3D organoids. To facilitate stable morphology, methylcellulose (Mehocel A4M) was added to the growth medium (52). Prior to seeding the hanging drop culture plate (#HDP1385, Sigma-Aldrich), cells were cultured in 100 mm or 150 mm dishes until reaching approximately 90% confluence. After washing with Hank's Balanced Salt Solution (HBSS), cells were detached using 0.25% Trypsin/EDTA and resuspended in growth medium. After centrifugation for 5 minutes at 300 g, the cell pellet was re-suspended in growth medium containing 0.25% w/v Methocel A4M. Volume was adjusted such that 20,000 cells were contained in 25 μL solution, and 25 μL drops were placed into each well of the drop culture plate (defined as day 0). Organoid medium (growth medium with 0.25% w/v methocel A4M) was used throughout the duration of spheroid culture. Every day, 14 μL culture medium was removed and 14 μL fresh culture medium added to each well.
Adipogenic differentiation was induced with (growth or organoid) medium containing 250 nM dexamethasone, 10 nM T3, 10 μM troglitazone, and 1 μg/ml insulin on days 1-5, followed by medium with 10 μM troglitazone and 1 μg/ml insulin on days 6-11, then with medium alone on day 12. For the analysis of the lipid droplet formation, organoids were transferred to super-low attachment 6 well dishes and incubated in HBSS containing BODIPY (#D3922, Thermo Fisher Scientific) at 1:500 ratio by volume for 1 hour, then fixed in 4% paraformaldehyde (PFA) in PBS for 10 minutes at room temperature. […] Several compounds were added to droplets on day 1 and maintained at the same concentration until collection of organoids on day 6. For individual experiments, these included 10 μM GM6001, (global MMP inhibitor), 30 nM T3, 5 mIU/ml TSH, 30 nM T3+5 mIU/ml TSH, 0.5 mM BAPN (LOX inhibitor), and 1 μM, 5 μM or 10 μM HIF2A antagonist.
The mechanical testing of the organoids was performed using the Microsquisher (CellScale, Waterloo, ON, Canada) as recently reported (53). The device consists of a microscale parallelplate compression system equipped with a 406-μm diameter cantilever. Organoids placed on a 3 mm-square plate for analysis. Immediately following collecting, organoids were placed in a 40 mL HBSS fluid bath at 37° C. and the cantilever was lowered until the upper compression plate was in contact with the top of the organoid. The organoids were compressed to 50% deformation (as determined by microscopic camera) for 20 seconds. The force used to produce 50% stain of displacement was measured by the cantilever and data were reported as force/displacement (μN/μm).

[2] = system: 3D G-OF organoids; assay: Immunofluorescent staining of ECM, LOX and HIF2A proteins in 3D G-OF organoids; assay type: cell-based, human; details: for ECM deposition (collagen types, FN) in G-OF organoids: immunofluorescence, 10 μM GM6001, 30 nM T3, 5 mIU/ml TSH, 0.5 mM BAPN, day 1-6
Protocol: as §2
Adipogenic differentiation was induced with (growth or organoid) medium containing 250 nM dexamethasone, 10 nM T3, 10 μM troglitazone, and 1 μg/ml insulin on days 1-5, followed by medium with 10 μM troglitazone and 1 μg/ml insulin on days 6-11, then with medium alone on day 12. For the analysis of the lipid droplet formation, organoids were transferred to super-low attachment 6 well dishes and incubated in HBSS containing BODIPY (#D3922, Thermo Fisher Scientific) at 1:500 ratio by volume for 1 hour, then fixed in 4% paraformaldehyde (PFA) in PBS for 10 minutes at room temperature. Fluorescence intensity of BODIPY-stained lipid droplets were measured using Nikon A1 confocal microscope (Tokyo, Japan) and quantified using Image J software version 1.51n (NIH, Bethesda, Md.). Several compounds were added to droplets on day 1 and maintained at the same concentration until collection of organoids on day 6. For individual experiments, these included 10 μM GM6001, (global MMP inhibitor), 30 nM T3, 5 mIU/ml TSH, 30 nM T3+5 mIU/ml TSH, 0.5 mM BAPN (LOX inhibitor), and 1 μM, 5 μM or 10 μM HIF2A antagonist.
Organoids were fixed in 4% PFA/PBS overnight with or without permeabilization in 0.5% Triton X-100 in PBS for 1 hour. To stain extracellular collagen and fibronectin, no permeabilization was performed, and all the detergents were excluded from the subsequent procedures. After blocking in 3% BSA/0.1% PBST for 3 hours at room temperature, organoids were washed 3 times for 30 minutes with PBST. Samples were incubated with primary antibody overnight at 4° C. […]

[3] = system: 3D N-OF organoids; assay: Tissue stiffness of 3D N-OF organoids (microindentation compression test); assay type: cell-based, human; details: added day 1, kept to day 6; 10 μM GM6001, 5 mIU/ml TSH
Excerpt: as §1
A hanging droplet spheroid culture system was used to generate 3D organoids. […]
(§3) The mechanical testing of the organoids was performed using the Microsquisher (CellScale, Waterloo, ON, Canada) as recently reported (53). […] The organoids were compressed to 50% deformation (as determined by microscopic camera) for 20 seconds. The force used to produce 50% stain of displacement was measured by the cantilever and data were reported as force/displacement (μN/μm).

[4] = system: 3D N-OF organoids; assay: Immunofluorescent staining of ECM and HIF2A proteins in 3D N-OF organoids; assay type: cell-based, human; details: immunofluorescence; 10 μM GM6001
Protocol: as §2, with “Every day, 14 μL culture medium was removed and 14 μL fresh culture medium added to each well.” left out
(§4) Adipogenic differentiation was induced with (growth or organoid) medium containing 250 nM dexamethasone, 10 nM T3, 10 μM troglitazone, and 1 μg/ml insulin on days 1-5, followed by medium with 10 μM troglitazone and 1 μg/ml insulin on days 6-11, then with medium alone on day 12. […] Fluorescence intensity of BODIPY-stained lipid droplets were measured using Nikon A1 confocal microscope (Tokyo, Japan) and quantified using Image J software version 1.51n (NIH, Bethesda, Md.). […]

[5] = system: 3D G-OF organoids; assay: Organoid size (cross-sectional area) of 3D G-OF organoids; assay type: cell-based, human; details: T3 30 nM, TSH 5 mIU/ml, or combination; 6-day time course
Protocol: (§5) A hanging droplet spheroid culture system was used to generate 3D organoids. To facilitate stable morphology, methylcellulose (Mehocel A4M) was added to the growth medium (52). Prior to seeding the hanging drop culture plate (#HDP1385, Sigma-Aldrich), cells were cultured in 100 mm or 150 mm dishes until reaching approximately 90% confluence. After washing with Hank's Balanced Salt Solution (HBSS), cells were detached using 0.25% Trypsin/EDTA and resuspended in growth medium. After centrifugation for 5 minutes at 300 g, the cell pellet was re-suspended in growth medium containing 0.25% w/v Methocel A4M. […]
as §4
Bright field images of each organoid were captured in 4× or 10× objective lenses using inverted microscope (Olympus IX70). The largest cross-sectional area (CSA) was calculated using Image J software version 1.51n. […] Intensity of immunofluorescent target proteins was quantified using NIH ImageJ software. […]

[6] = system: mouse OF organoids; assay: Tissue stiffness of 3D mouse OF organoids expressing mutant HIF2A (HIF2dPA); assay type: cell-based; details: adeno-Cre-induced HIF2dPA
Protocol: ROSA26-STOP-HIF2dPA (flox/flox) mice were provided by Dr. Emestina Schipani (University of Michigan), and used for the isolation of orbital adipose tissue. Cells isolated from this depot were cultivated as previously reported (50) and cultured in a standard growth medium. A degradation-resistant HIF2A mutant was introduced by adenoviral Cre (Vector; Ad5 CMV-Cre)-recombinase by incubation for 16 hours with the virus. Adenoviral GFP (Vector; Ad5 CMV eGFP.dIE3) or Empty (Vector: Ad5 CMV pLpA.dIE3)-recombinase was used as controls.
as §5, with “medium.” for “medium. After centrifugation for 5 minutes at 300 g, the cell pellet was re-suspended in growth medium containing 0.25% w/v Methocel A4M.”
as §3, with “(μN/μm). […]” for “(μN/μm).”

[7] = listed as allosteric HIF2A antagonist

O=[N+]([O-])c1c(Nc2cc(F)cc(Cl)c2)ccc2nonc12 [C12H6ClFN4O3]
tissue stiffness of M22-stimulated G-OF organoids ([1]; listed as C12H6ClFN4O03): reversed the tissue stiffness caused by TSHR activation | tissue stiffness of M22-stimulated G-OF organoids [1, 7]: reverses | tissue stiffness of TSH-stimulated G-OF organoids ([1]; listed as C12H6ClFN4O03): reversed the tissue stiffness caused by TSHR activation | tissue stiffness of TSH-stimulated G-OF organoids [1, 7]: reverses | tissue stiffness of 3D G-OF organoids [1]: normalized the tissue stiffness | protein levels of LOX and FN in G-OF organoids ([2]; HIF2A antagonist 1 μM, 5 μM or 10 μM): reducing protein levels of LOX and FN, in a dose-dependent manner

CNC(=O)[C@H](Cc1c[nH]c2ccccc12)NC(=O)[C@@H](CC(=O)NO)CC(C)C [GM6001]
tissue stiffness of 3D N-OF organoids [3]: increased tissue stiffness | ECM deposition (collagen types) in N-OF spheroids [4]: significant accumulation of type I, IV, and VI collagens | tissue stiffness of 3D G-OF organoids [1]: increased tissue stiffness | ECM deposition (collagen types, FN) in G-OF organoids [2]: significant accumulation of type I, IV, and VI collagens

N[C@@H](Cc1cc(I)c(Oc2ccc(O)c(I)c2)c(I)c1)C(=O)O [T3, 3,3′,5-Triiodo-L-thyronine]
ECM deposition (collagen types, FN) in G-OF organoids [2]: no discemable impact | organoid size (CSA) of G-OF organoids [5]: significant reduction in CSA

N#CCCN.O=C(O)/C=C/C(=O)O [BAPN, 3-Aminopropionitrile fumarate salt]
tissue stiffness of mouse OF organoids with mutant HIF2A expression [6]: completely ameliorated the increased tissue stiffness | tissue stiffness of 3D G-OF organoids [1]: reduction of tissue stiffness | ECM deposition (collagen types, FN) in G-OF organoids [2]: effectively suppressed the deposition of collagens type I and IV, FN, but not collagen type III and VI

Source: patent US20210002641A1, “COMPOSITIONS AND METHODS FOR TREATING GRAVES DISEASE” (The Regents of the University of Michigan, priority 2018, published 2021)
